Literature values as cited in publication PMC5263201, “GABAA receptor occupancy by subtype selective GABAAα2,3 modulators: PET studies in humans” (Psychopharmacology, 2016).
Where two headings read alike, the source gives them in different places.

Parameters: method as in AstraZeneca Single Ascending Dose studies
Settings: 6 subjects, ref AstraZeneca Single Ascending Dose studies, cited from earlier work

CCCNC(=O)c1nnc2c(-c3c(F)cccc3OC)cccc2c1N [AZD7325]
Number of subjects with at least one adverse event (AZD7325 0.2 mg): 2 (33) Number (%) of patients | anxiety (AZD7325 0.2 mg): 0 Number (%) of patients | dizziness (AZD7325 0.2 mg): 0 Number (%) of patients | euphoric mood (AZD7325 0.2 mg): 0 Number (%) of patients | hypoaesthesia (AZD7325 0.2 mg): 0 Number (%) of patients | paraesthesia (AZD7325 0.2 mg): 0 Number (%) of patients | somnolence (AZD7325 0.2 mg): 0 Number (%) of patients | Number of subjects with at least one adverse event (AZD7325 1mg): 2 (33) Number (%) of patients | anxiety (AZD7325 1mg): 0 Number (%) of patients | dizziness (AZD7325 1mg): 0 Number (%) of patients | euphoric mood (AZD7325 1mg): 0 Number (%) of patients | hypoaesthesia (AZD7325 1mg): 0 Number (%) of patients | paraesthesia (AZD7325 1mg): 0 Number (%) of patients | somnolence (AZD7325 1mg): 0 Number (%) of patients | Number of subjects with at least one adverse event (AZD7325 5mg): 4 (67) Number (%) of patients | anxiety (AZD7325 5mg): 0 Number (%) of patients | dizziness (AZD7325 5mg): 0 Number (%) of patients | euphoric mood (AZD7325 5mg): 0 Number (%) of patients | hypoaesthesia (AZD7325 5mg): 1 (17) Number (%) of patients | paraesthesia (AZD7325 5mg): 0 Number (%) of patients | somnolence (AZD7325 5mg): 1 (17) Number (%) of patients | Number of subjects with at least one adverse event (AZD7325 10 mg): 2 (33) Number (%) of patients | anxiety (AZD7325 10 mg): 0 Number (%) of patients | dizziness (AZD7325 10 mg): 2 (33) Number (%) of patients | euphoric mood (AZD7325 10 mg): 0 Number (%) of patients | hypoaesthesia (AZD7325 10 mg): 0 Number (%) of patients | paraesthesia (AZD7325 10 mg): 0 Number (%) of patients | somnolence (AZD7325 10 mg): 0 Number (%) of patients | Number of subjects with at least one adverse event (AZD7325 20 mg): 1 (17) Number (%) of patients | anxiety (AZD7325 20 mg): 0 Number (%) of patients | dizziness (AZD7325 20 mg): 0 Number (%) of patients | euphoric mood (AZD7325 20 mg): 1 (17) Number (%) of patients | hypoaesthesia (AZD7325 20 mg): 0 Number (%) of patients | paraesthesia (AZD7325 20 mg): 0 Number (%) of patients | somnolence (AZD7325 20 mg): 0 Number (%) of patients | Number of subjects with at least one adverse event (AZD7325 30 mg): 3 (50) Number (%) of patients | anxiety (AZD7325 30 mg): 0 Number (%) of patients | dizziness (AZD7325 30 mg): 1 (17) Number (%) of patients | euphoric mood (AZD7325 30 mg): 1 (17) Number (%) of patients | hypoaesthesia (AZD7325 30 mg): 0 Number (%) of patients | paraesthesia (AZD7325 30 mg): 0 Number (%) of patients | somnolence (AZD7325 30 mg): 1 (17) Number (%) of patients | Number of subjects with at least one adverse event (AZD7325 50 mg): 1 (50) Number (%) of patients | anxiety (AZD7325 50 mg): 0 Number (%) of patients | dizziness (AZD7325 50 mg): 0 Number (%) of patients | euphoric mood (AZD7325 50 mg): 0 Number (%) of patients | hypoaesthesia (AZD7325 50 mg): 0 Number (%) of patients | paraesthesia (AZD7325 50 mg): 0 Number (%) of patients | somnolence (AZD7325 50 mg): 0 Number (%) of patients | Number of subjects with at least one adverse event (AZD7325 75 mg): 4 (67) Number (%) of patients | anxiety (AZD7325 75 mg): 0 Number (%) of patients | dizziness (AZD7325 75 mg): 0 Number (%) of patients | euphoric mood (AZD7325 75 mg): 3 (50) Number (%) of patients | hypoaesthesia (AZD7325 75 mg): 0 Number (%) of patients | paraesthesia (AZD7325 75 mg): 1 (17) Number (%) of patients | somnolence (AZD7325 75 mg): 0 Number (%) of patients | Number of subjects with at least one adverse event (AZD7325 100 mg): 4 (67) Number (%) of patients | anxiety (AZD7325 100 mg): 1 (17) Number (%) of patients | dizziness (AZD7325 100 mg): 2 (33) Number (%) of patients | euphoric mood (AZD7325 100 mg): 1 (17) Number (%) of patients | hypoaesthesia (AZD7325 100 mg): 0 Number (%) of patients | paraesthesia (AZD7325 100 mg): 0 Number (%) of patients | somnolence (AZD7325 100 mg): 1 (17) Number (%) of patients
